From US5124313A, “Methods of improved skin care and the treatment of dermatological conditions” (priority 1989, dated 1992)
Like-named read-outs stand apart in the source and are kept apart here. One block for each molecule: values may come before it.

How the values were obtained:
[1] = In vitro water/solvent partitioning (dispersion, centrifugation, HPLC of supernatant); format: physicochemical
Experimental: The method s for determining in vitro water/solvent partitioning was as follows:
Individual dispersions of the above were prepared in the following solvents:
(1) Distilled water at 23° C.
(2) Distilled water at 70° C.
The dispersions were made under nitrogen and protected from light, using high shear agitation to yield particles of less than 0.5 u in diameter. The concentrations in each case were calculated to yield 4,000 i.u. per ml. The dispersions were centrifuged until clear supernatant liquids were obtained. Aliquouts of 50 uL of the clear supernatants were injected into the HPLC columns and the resulting peaks were evaluated, using a methanol solution of retinyl palmitate as the standard.

[2] = human, in vivo
Experimental: Ten subjects, 4 females and 6 males, ranging in age from 18 to 27 years participated with informed consent.
The products were applied to alternate inner wrist surfaces, in areas of 2.5×1.0 cm, rubbed into the skin for aproximately 5-10 seconds, using a gloved finger as an applicator and applying equal pressure in all applications. […] Mixing, applications and assays were performed in subdued light in order to decrease photodecomposition. The application sites were loosely covered with protective aluminum foil. After 30 minutes of exposure, the surface products were removed by rinsing with alcohol followed by air-drying. A strip of 3M Tape was then applied to the application site in a slightly larger rectangle than the site and removed. This stripping process was repeated for a total of 15 times and was designed to removed the entire stratum corneum. The combined strips were eluted with methanol and the eluates were assayed for RP by HPLC, using a Lichrosorb Si 60/5 micron column, after separation and saponification according to a modified USP XXI procedure.

[3] = present practices of use and concentration; cited from earlier work
[4] = cited from earlier work; for allergic responses / skin irritation / sensitization: human, in vivo
[5] = topical; cited from earlier work
fetuses [6] = settings: rat; topical administration to the mother; cited from earlier work
fetuses [7] = settings: rabbit; topical administration to the mother; cited from earlier work
[8] = n-Hexane at 250° C. (so in the source), dispersion calculated to 4,000 i.u. per ml
[9] = n-Hexane, dispersion calculated to 4,000 i.u. per ml

- solubility in n-hexane (in words) [1]: good solubility
- solubility in water (in words) [1]: no solubility in water
- Absorption, both HPLC peaks (or absence of peak) ([1]; Water at 23° C., dispersion calculated to 4,000 i.u. per ml): No peak
- Absorption, both HPLC peaks (or absence of peak) ([1]; Water at 70° C., dispersion calculated to 4,000 i.u. per ml): No Peak
- Absorption, both HPLC peaks (or absence of peak) [1, 8]: 0.10
- HPLC Peak #2 [1, 8]: 0.070
- Absorption equivalent [1, 9]: ~4,000 i.u.
- HPLC Peak #1 [1, 9]: 0.031
- % Retinyl Palmitate Absorbed, average +/- Std. Deviation [2]: 0.84 +/- 0.21%
Compound: CCCCCCCCCCCCCCCC(=O)OC/C=C(C)/C=C/C=C(C)/C=C/C1=C(C)CCCC1(C)C [RP, retinyl palmitate]
- partitioning / migration into water and hexane (in words) ([1]; water and hexane): no migration into water with some fractionation into hexane
- safety as cosmetic ingredient [3]: safe as cosmetic ingredients

Compound: CC1=C(/C=C/C(C)=C/C=C/C(C)=C\C(=O)O)C(C)(C)CCC1 [Accutane®, 13-cis-Retinoic acid]
- birth defects ([4]; children of women treated during pregnancy): extensive birth defects in children of women treated with the drug during pregnancy
- allergic responses / skin irritation / sensitization [4]: Allergic responses have also been reported

Compound: CC1=C(/C=C/C(C)=C/C=C/C(C)=C/C(=O)O)C(C)(C)CCC1 [Tretinoin, All-trans-retinoic acid]
- treatment of photoaged skin [5]: effective for the treatment of photoaged skin
- allergic responses / skin irritation / sensitization [4]: severe skin irritation, sensitization and allergic responses
- fetal abnormalities (fetuses [6]): abnormalities in rat and rabbit fetuses
- fetal abnormalities (fetuses [7]): abnormalities in rat and rabbit fetuses

Compound: CC(C=CC1=C(C)CCCC1(C)C)=CC=CC(C)=CCO [retinol, 3,7-dimethyl-9-(2,6,6-trimethyl-1-cyclohexen-1-yl)-2,4,6,8-nonatetraen-1-ol]
- safety as cosmetic ingredient [3]: safe as cosmetic ingredients
